Reference: ChEMBL document CHEMBL1159326, “Three new homoisoflavanone glycosides from the bulbs of Ornithogalum caudatum” (J Nat Prod, 2002)
The source made the active and inactive calls. No cut-off for these calls is given here.

Legend:
P388 = assay: Antitumor activity in mouse P388 cells; type: functional, cell-based
A549 = assay: Antitumor activity in human A549 cells; type: functional, cell-based

In the case of `COc1ccc(C[C@]2(O)COc3cc(OC)cc(O[C@@H]4O[C@H](CO)[C@@H](O)[C@H](O)[C@H]4O[C@@H]4O[C@@H](C)[C@H](O)[C@@H](O)[C@H]4O)c3C2=O)cc1`, the Activity (P388) is reported as “inactive” and the Activity (A549) is reported as “inactive”.

With `COc1ccc(C[C@]2(O)COc3cc(OC)cc(O[C@@H]4O[C@H](CO[C@@H]5O[C@@H](C)[C@H](O)[C@@H](O)[C@H]5O)[C@@H](O)[C@H](O)[C@H]4O)c3C2=O)cc1` the Activity (P388) was “inactive” and the Activity (A549) was “inactive”.

In the case of `COc1ccc(C[C@]2(O)COc3cc(OC)cc(O[C@@H]4O[C@H](CO)[C@@H](O)[C@H](O)[C@H]4O)c3C2=O)cc1`, the Activity (P388) is reported as “inactive” and the Activity (A549) is reported as “inactive”.
